Reference: US9572862B2, “Methods for promoting lipolysis and oxidation in liver and adipose tissue using catestatin” (The Regents of the University of California, priority 2012, dated 2017)
“Also recorded” adds a separate entry of the source. No end group written: not given here.

Columns and labels:
[1] = tested on: PC-12 neuroendocrine cells; test: cAMP production in PC-12 cells; assay type: cell-based
[2] = tested on: AMPK and Stat3 phosphorylation; test: AMPK and Stat3 signaling in adipose tissue explants from Chga-KO mice; assay type: cell-based
Description: FIG. 6. Regulation of AMPK and Stat3 signaling by CST in adipose tissue explants. Explants from Chga-KO mice were treated with saline or CST (100 nM for 30 min) and immunoblotted for pAMPK and AMPK (A). Adipose explants from WT and Chga-KO mice were immunoblotted for pAMPK and AMPK after treatment with saline or leptin (1 μM) for 30 min (B). pAMPK and AMPK (C) and pStat3 and Stat3 (D) signaling in adipose explants from WT and Chga-KO mice after treatment for 30 min with saline, CST (100 nM), leptin (1 μM) or leptin plus CST.
(§1) Adipose tissue explants were prepared as described (42). Epididymal fat pads from 12 hr fasted WT, Chga-KO, DIO and Ob/Ob mice with or without CST treatment were collected in Kreb-Ringer-phosphate (KRP) buffer containing 10 mM Hepes and 0.5% BSA. Tissues were minced to 1-2 mm size and treated with 100 nM CST, 1 μM leptin, or saline for 30 min (for signaling analysis) or 3 hr (for lipolysis and β-oxidation assays). Explants were also treated acutely with CST, leptin, a combination, or saline. At the end, incubation media were saved for analysis of glycerol and fatty acid release. Explants were washed prior to homogenization for immunoblotting and analysis of fatty acid oxidation.
Adipose tissue explants after treatments ex vivo and tissues from mice treated in vivo were homogenized in a buffer containing phosphatase and protease inhibitors (20 mM Tris/HCl (pH 7.5), 250 mM sucrose, 2 mM EDTA, 2 mM EGTA, 2 mM Na3VO4, 10 mM NaF, 2 mM Na4P2O7, 1 mM phenylmethylsulfonyl fluoride, 20 μg/ml leupeptin, 10 μg/ml aprotinin, and 1 μM LR-microcystin) as described (38,44). Homogenates were subjected to SDS-PAGE and immunoblotted. Primary antibodies for AMPK and Stat3 were from Cell Signaling Technology (Beverly, Mass.). The chemiluminescence kit was from Pierce (Rockford, Ill.).

[3] = tested on: adipose tissue explants from Ob/Ob mice; test: Lipolysis and fatty acid oxidation in adipose explants of Ob/Ob mice; assay type: cell-based
Description: FIG. 8. Lipolysis and fatty acid oxidation in the adipose tissue explants of DIO and Ob/Ob mice after treatment with saline or CST for 16 days. Explants were incubated with saline or leptin (1 μM) for 3 hr and the concentrations of glycerol (A&C) and NEFA (B&D) released into the media from DIO (A&B) and Ob/Ob (C&D) explants were determined as a measure of lipolysis. Homogenates of the explants from DIO (E) and Ob/Ob […] were used to determine their capacity for oxidation of U-^14C-palmitate in response to the treatment with saline, CST, leptin and CST+leptin. The ^14CO2 released was captured and counted as the measure of fatty acid oxidation.
as §1
Oxidation of radiolabeled palmitate in the homogenates of adipose tissue explants as described previously (45). For oxidation studies of cultured cells, HepG2 (hepatocytes) and 3T3-L1 preadipocytes were obtained from ATCC and cultured following supplier's protocol. Confluent 3T3-L1 cultures were differentiated into adipocytes by treating with a cocktail of dexamethasone (100 nM), IBMX ([…]) and insulin (100 nM) for 10 days. Media were then switched to serum-free DMEM with 1% BSA. Hepatocytes were assayed for lipogenesis and fat oxidation in response to CST treatment. Serum-free cultures were treated with CST (100 nM) for 24 hr followed by a 2 hr incubation with U^14C-palmitate (0.5 μCi/ml). Fatty acid oxidation in cells was determined by modifying a published method (46). Specifically, the culture media in 24-well plates were acidified with 10% HClO4 after incubation with the labeled fatty acid and immediately covered with a thick filter paper sheet (cut to size) soaked in 2 N NaOH and placed underneath the plastic lid. The whole plate was sealed with parafilm. After further incubation for 2 hr, the filter paper sheet was marked as circles around the rim of the wells and then the circles were excised. The filter discs were counted to determine the amount of ^14CO2 absorbed in the papers. Cells in the culture wells were lysed in 1 N NaOH and protein content was assayed using Folin's reagent (BioRad, Hercules, Calif.).

CST-KO mice [4] = test: CST supplementation in NCD-fed CST-KO mice; assay type: in vivo
Description: FIG. 13. Changes in biochemical and physiological parameters in NCD-fed CST-KO mice after CST (5 μg/g BW) supplementation. […] Figures in parentheses indicate number of animals.

HFD-fed CST-KO mice = test: CST supplementation in HFD-fed CST-KO mice; assay type: in vivo
Excerpt: FIG. 12. Metabolic phenotypes in HFD-fed CST-KO mice. (A) CST-KO mice eat more 60% HFD than WT. (B) CST-KO mice gained more weight than WT. (C) Heightened glucose resistance at baseline in CST-KO mice compared to WT mice. […] Figures in parentheses indicate number of animals.

HFD-fed Chga-KO mice = test: Peptide supplementation to HFD-fed Chga-KO mice (insulin sensitivity); assay type: in vivo; conditions: HFD (60%)-fed Chga-KO mice
CST-KO mice [5] = test: Palmitate oxidation and hepatic gene expression in CST-KO mice; assay type: in vivo
Excerpt: FIG. 14. Palmitate oxidation. CST augmented palmitate oxidation in liver (A) and muscle (B) of both NCD- and 60% HFD-fed mice. Hepatic expression of genes involved in fatty acid oxidation such as Cpt1α(C), Acox (D) and Pparα (E). Augmented expression of these genes in Chga-KO mice indicates increased fatty acid oxidation in liver. In contrast, decreased expression in CST-KO mice indicates decreased fatty acid oxidation in liver, which was restored by supplementation with CST. Expression of lipogenic & gluconeogenic genes (F). Increased expression of Srebp1c in Chga-KO mice indicates increased lipogenesis. (G) Decreased expression of gluconeogenic gene Pepck in Chga-KO mice indicates inhibition of gluconeogenesis eventuating in increased sensitivity to insulin. In contrast, augmented expression of Pepck in CST-KO implicates increased gluconeogenesis eventuating in decreased sensitivity to insulin, which is normalized after CST supplementation. Figures in parentheses indicate number of animals.

CST-KO mice [6] = test: ITT in insulin resistant CST-KO mice with CST, RI-CST or NSC-177941; assay type: in vivo; conditions: ITT in CST-KO mice
Excerpt: FIG. 16. […] Figures in parentheses indicate number of animals.

[7] = CST-KO mice, CST 5 μg/g BW for 8 days
[8] = CST-KO mice, CST supplementation

## SSMKLSFRARAYGFRGPGPQL [CST]
[1]
  basal or isoproterenol-induced cAMP levels: did not modulate
[1]; CST 100 nM, ISO 10 μM, 10 min
  cAMP production: not by CST
[2]
  Stat3 phosphorylation, CST alone: lack of CST stimulation of Stat3 phosphorylation
[2]; CST plus leptin
  leptin's ability to stimulate the phosphorylation of AMPK: restored
  leptin's ability to stimulate the phosphorylation of Stat3: restored
[2]; acute CST 100 nM 30 min
  AMPK phosphorylation, CST alone: stimulated AMPK phosphorylation; also recorded: significantly stimulated pAMPK signaling
[3]
  palmitate oxidation: not CST alone
[3]; CST in vivo 16 days, leptin 1 μM ex vivo 3 hr
  lipolysis (glycerol and NEFA release): did not influence lipolysis
CST-KO mice [4]; [7]
  plasma NEFA: reduced; also recorded: decreased
  plasma TG: reduced; also recorded: decreased
  plasma catecholamine: reduced; also recorded: normalized high plasma catecholamines
  plasma glycerol: increase; also recorded: increased plasma glycerol
  plasma insulin: reduced; also recorded: normalized the plasma insulin concentration to the WT level; also recorded: normalized hyperinsulinemia
  plasma leptin: reduced; also recorded: normalized hyperleptinemia
CST-KO mice [4]; [8]
  hypertensive phenotype: normalized
CST-KO mice [4]; NCD-fed CST-KO mice, CST 5 μg/g BW for 8 days
  glucose tolerance by IP-GTT: restored glucose tolerance; also recorded: improved glucose tolerance; also recorded: improved insulin resistance
CST-KO mice [4]; NCD-fed CST-KO mice, CST supplementation
  insulin sensitivity / glucose tolerance by IP-ITT: improved insulin sensitivity; also recorded: restored glucose tolerance; also recorded: improved insulin resistance
HFD-fed CST-KO mice
  basal plasma insulin level: decreased; also recorded: reduced hyperinsulinemia
HFD-fed CST-KO mice; CST 5 μg/g BW
  insulin sensitivity (IP-ITT): improved insulin sensitivity; also recorded: reversed glucose resistance to glucose tolerance
HFD-fed Chga-KO mice
  insulin sensitivity (GTT): made HFD-fed Chga-KO mice sensitive to insulin
CST-KO mice [5]; [8]
  palmitate oxidation in liver: stimulated; also recorded: augmented
  palmitate oxidation in muscle: stimulated; also recorded: augmented
CST-KO mice [5]; liver of CST-KO mice
  hepatic expression of Acox: stimulated expression; also recorded: restored
  hepatic expression of Cpt1α: stimulated expression; also recorded: restored
  hepatic expression of Pepck: suppressed the expression; also recorded: normalized
  hepatic expression of Pparα: stimulated expression; also recorded: restored
  hepatic expression of Srebp1c: stimulated expression
CST-KO mice [6]
  persistence of the insulin-sensitizing effect: persisted throughout the experimental period
